In patent publication US9226517B2, “Use of iminocyclitols as inhibitors of bacterial adherence to epithelial cells” (Taihua Shouyue (Hong Kong) International Co Limited, priority 2010, dated 2016):
Values joined by “and” are separate entries in the source; they are usually repeats but may differ in a detail not shown here. Equal values may be shown once.

Assays:
S. mutans = conditions: Islam et al. 2008; compound isolated from M. alba; cited from earlier work
Escherichia coli [1] = test: Bacterial agglutination assay; format: cell-based; conditions: for agglutination relative to the corresponding positive control: positive control mannose 0.05M
Experimental: (§1) Bacteria used in the assay were Escherichia coli, Salmonella tphimurium and Streptococcus mutans, from over night cultures. The bacteria were inoculated in the 100 ml flask with Luria medium. The bacteria were grown for 24 h at 37° C. After incubation, Agar Luria medium plates were inoculated. After 24 h suspensions of each strain were prepared in PBS medium (10^8 CFU/ml). Serial dilutions of the products to be tested, D-fagomine and D-fagomine tartrate (20 ppm, 200 ppm, 2000 ppm) were made. The dilutions were mixed with bacterial suspensions in a 1:1 ratio. After 90 min. at room temperature the suspensions were observed under optical microscope. They were compared with the control culture without any product added.
(§2) Bacteria used in the assay were Escherichia coli, Salmonella tphimurium, Streptococcus mutans, Lactobacillus casei and Bifidobacterium sp., from over night cultures. The bacteria were inoculated in the 100 ml flask with Luria medium. The bacteria were grown for 24 h at 37° C. After incubation, Agar Luria medium plates were inoculated. After 24 h suspensions of each strain were prepared in PBS medium (10^8 CFU/ml). Serial dilutions of the product to be tested, D-fagomine tartrate (10 ppm, 20 ppm, 2000 ppm) were made. The dilutions were mixed with bacterial suspensions in a 1:1 ratio. After 90 min. at room temperature the suspensions were observed under optical microscope. They were compared with the control culture without any product added. The Escherichia coli and Salmonella tphimurium were compared with a positive control culture (mannose 0.05M).

Salmonella tphimurium = test: Bacterial agglutination assay; format: cell-based; conditions: for agglutination relative to the corresponding positive control: positive control mannose 0.05M
Experimental: as §1, §2

Streptococcus mutans [2] = test: Bacterial agglutination assay; format: cell-based
Experimental: as §1, §2

Bifidobacterium sp. = test: Bacterial agglutination assay; format: cell-based; conditions: Example 2; 90 min room temperature
Experimental: as §2

Lactobacillus casei = test: Bacterial agglutination assay; format: cell-based; conditions: Example 2; 90 min room temperature
Experimental: as §2

Streptococcus mutans [3] = test: Glass surface adherence assay; format: cell-based; conditions: for G/MG (Glass/Mannose glass): vs mannose 0.05 M
Experimental: Glass surface adherence assay was performed. The bacterium used in the assay was Streptococcus mutans from over night cultures (1 10^10 UCF/ml). The bacterium was grown for 18 h at 37° C. in PBS medium. The bacteria from the overnight culture (0.25 ml) were grown for 18 h at […] in a glass dish with the specific medium (0.5 ml). After the 18 h, 0.25 ml of D-fagomine (10 ppm, 20 ppm and 40 ppm) was added. In the control plate was added only PBS. After 90 min. the cells were transfered (0.5 ml) to a falcon tube, then were washed two times with PBS (0.5 ml each time). The wash of each bacteria was collected in a falcon tube and was kept at 4° C. The cells (100 μl) were seeded in the plates in TSA medium. The cells adhered were scrapped. In each well, it was added 0.5 ml of sterile PBS. The plaques with 100 μl were inoculated. The plaques were counted.

Escherichia coli [4] = test: Adhesion to mucus (mucosal epitelial cells); format: cell-based; conditions: for Bacteria in supernatant: duplicates 1 and 2
Experimental: (§3) • Mucus: mucosal epitelial cells • Adhesion to mucus. Protocol Day 1
(§4) The bacteria was inoculated in the tube, with 3 ml Luria medium. The bacteria were grown for 24 h at 37° C. The tube was incubated overnight (1 10^8-1 10^9 UCF/ml).
(§5) The mucus (1 ml) is defrosted at room temperature. PBS medium (100 ml) was prepared. The defrosted mucus was centrifuged at 8000 rpm for 10 minutes. The mucus (1 ml) was transferred to an aliquot with sterile PBS (99 ml) (1:100). Each well is inoculated with 2.5 ml from the mixture and the plate is kept in the fridge (4° C.) overnight.
(§6) The plate was taken out from the fridge. 2 ml was extracted from each well. PBS (1 ml) was added, then was extracted, at the end there was 0.5 ml in the well.
(§7) The tubes that were grown overnight were diluted (1 10^7 UCF/ml).
(§8) The final volume in each well was: PBS 0.5 ml plus bacterial suspension 0.5 ml plus D-fagomine 0.5 ml (or PBS in control case).
(§9) Two plates were prepared (duplicated strains). Product concentration in the wells (10 ppm, 20 ppm, 40 pppm). Mannose concentration 0.05M (control well).
(§10) The wells were inoculated and the plates were incubated at 37° C. for 90 minutes.
(§11) After the 90 minutes, the supernatant of each well (10 μl) were observed under optical microscope.
(§12) It was added 1 ml of each well in eppendorfs. The eppendords were kept on the fridge. Two wash were made with PBS. The wells washed of the same strain were recoleted in a falcon tube and they were kept at 4° C. PBS (1 ml) was added in each well and the plates were inoculated with 100 μl of each tubes at the adecuated dilutions.
(§13) The plates were recounted

Salmonella = test: Adhesion to mucus (mucosal epitelial cells); format: cell-based
Experimental: as §3, §4, §5, §6, §7, §8, §9, §10, §11, §12, §13

Bifidobacterium = test: Adhesion to mucus; format: cell-based
Experimental: (§14) • Adhesion to mucus. Protocol Day 1
(§15) The bacteria was inoculated in the tube with 3 ml Luria medium. The bacteria were grown for 24 h at 37° C. The tube was incubated overnight (1 10^7-1 10^8 UCF/ml).
(§16) The mucus (1 ml) is defrosted at room temperature. 100 ml of PBS medium was prepared. The defrosted mucus (1 ml) was centrifuged at 8000 rpm for 10 minutes. The mucus (1 ml) was transferred to an aliquot with sterile PBS (99 ml). Each well is inoculated with 2.5 ml from the mixture and the plate is kept in the fridge (4° C.) overnight.
(§17) The plate was taken out from the fridge an the wash was made. 2 ml was extracted from each well. PBS (1 ml) was added, then was extracted, at the end there was 0.5 ml in the well.
(§18) The tubes that were grown overnight, were diluted (1 10^7 UCF/ml).
(§19) The final volume in each well was: PBS 0.5 ml plus bacterial suspension 0.5 ml plus D-fagomine 0.5 ml (or PBS in control case). It was prepared 2 plates (duplicated strains). Product concentration in the wells (10 ppm, 20 ppm, 40 pppm). Mannose concentration 0.05M (control well). The wells were inoculated and the plates were incubated at 37° C. for 90 minutes. After the 90 minutes, the supernatant of each well (10 μl) were observed under optical microscope. It was added 1 ml of each well in eppendorfs. The eppendords were kept on the fridge. Two wash were made with PBS. The wells washes of the same strain were recoleted in a falcon tube and they were kept at 4° C. PBS (1 ml) was added in each well and the plates were inoculated with 100 μl of each tubes at the adecuated dilutions.
as §13

[5] = system: Lactobacillus acidophilus; test: Adhesion to mucus; format: cell-based
Experimental: as §14, §15, §16, §17, §18, §19, §13

[6] = Castillo et al., Organic Letter 2006; cited from earlier work
[7] = Example 1, 20 ppm, 200 ppm and 2000 ppm, 90 min room temperature, vs control culture
[8] = Example 2, 20 ppm and 200 ppm, 90 min room temperature
[9] = independently of the D-fagomine concentration (10, 20, 40 ppm)
[10] = D-fagomine 40 ppm, duplicates 1 and 2

For `OC[C@H]1NC[C@H](O)[C@@H](O)[C@@H]1O` [1-deoxynojirimycin], the “anti-microbial activity against S. mutans” value (S. mutans) is given as “anti-microbial activity”.

For `O=C(O)C(O)C(O)C(=O)O.OC[C@H]1NCC[C@@H](O)[C@@H]1O` [D-fagomine tartrate], the “agglutination relative to the corresponding positive control” value (Escherichia coli [1]; 20 ppm) was “about 60%”, the “agglutination relative to the corresponding positive control” value (Escherichia coli [1]; 200 ppm) was “about 70%” and the “agglutination of the cells (optical microscope)” value (“agglutination of the cells” for short) (Escherichia coli [1]; [7]) was “agglutinated”. The “agglutination of the cells” value (Escherichia coli [1]; Example 2, 10 ppm) was “not at 10 ppm”, the “agglutination of the cells” value (Escherichia coli [1]; [8]) was “agglutinated” and the “agglutination relative to the corresponding positive control” value (Salmonella tphimurium; 20 ppm) was “about 60%”. For the same molecule, the “agglutination relative to the corresponding positive control” value (Salmonella tphimurium; 200 ppm) was “about 70%”, the “agglutination of the cells” value (Salmonella tphimurium; [7]) was “agglutinated” and the “agglutination of the cells” value (Salmonella tphimurium; Example 2, 10 ppm) was “not at 10 ppm”. The “agglutination of the cells” value (Salmonella tphimurium; [8]) was “agglutinated”, the “agglutination of the cells” value (Streptococcus mutans [2]; [7]) was “agglutinated” and the “agglutination of the cells” value (Streptococcus mutans [2]; Example 2, 10 ppm) was “not at 10 ppm”. For the same molecule, the “agglutination of the cells” value (Streptococcus mutans [2]; [8]) was “agglutinated”, the “agglutination of the cells” value (Bifidobacterium sp.) was “not agglutinated” and the “agglutination of the cells” value (Lactobacillus casei) was “not agglutinated”.

In the case of `OC[C@H]1NCC[C@@H](O)[C@@H]1O` [D-fagomine, (2R, 3R, 4R)-2-hydroxymethylpiperidine-3,4-diol], the “agglutination of the cells” value (Escherichia coli [1]; [7]) is reported as “agglutinated”, the “agglutination of the cells” value (Salmonella tphimurium; [7]) is reported as “agglutinated” and the “agglutination of the cells” value (Streptococcus mutans [2]; [7]) is reported as “agglutinated”. The “antiadherence activity in respect of the control” value (Streptococcus mutans [3]; 10 ppm, 20 ppm and 40 ppm) was “has antiadherence activity”, the “PG/CG (Product glass/Control glass without product)” value (Streptococcus mutans [3]; D-fagomine 10 ppm) was 1.60 and the “G/MG (Glass/Mannose glass)” value (Streptococcus mutans [3]; D-fagomine 10 ppm) was 1.60. The “G/MG (Glass/Mannose glass)” value (Streptococcus mutans [3]; D-fagomine 20 ppm) was 1.35, the Bacteria in supernatant (Escherichia coli [4]; D-fagomine 10 ppm) was 94.5% and 95.1% and the Bacteria in supernatant (Escherichia coli [4]; D-fagomine 20 ppm) was 96.3% and 99.0%. The Bacteria in supernatant (Escherichia coli [4]; D-fagomine 40 ppm) was 99.2% and 98.6%, the “agglutination of microorganisms with the mucus” value (Escherichia coli [4]; [9]) was “not agglutinated with the mucus” and the Bacteria in supernatant (Salmonella; D-fagomine 10 ppm, duplicates 1 and 2) was 78.4% and 91.8%. The Bacteria in supernatant (Salmonella; D-fagomine 20 ppm, duplicates 1 and 2) was 98.2% and 95.5%, the Bacteria in supernatant (Salmonella; [10]) was 98.2% and 84.1% and the Supernatant/mucus (Salmonella; [10]) was 5.27 UCF/ml. For the same molecule, the “agglutination of microorganisms with the mucus” value (Salmonella; [9]) was “not agglutinated with the mucus”, the “Product M/Control M” value (Bifidobacterium; D-fagomine 20 ppm) was 1.14 and the “Product M/Control M” value (Bifidobacterium; D-fagomine 40 ppm) was 3.50. For the same molecule, the “M/Manose M” value ([5]; D-fagomine 10 ppm) was 1.31, the “Product M/Control M” value ([5]; D-fagomine 10 ppm) was 5.58 and the “M/Manose M” value ([5]; D-fagomine 20 ppm) was 1.31. For the same molecule, the “Product M/Control M” value ([5]; D-fagomine 20 ppm) was 5.58, the “Product M/Control M” value ([5]; D-fagomine 40 ppm) was 3.94 and the antimicrobial activity [6] was “do not show antimicrobial activity”.
